PubChem BioAssay AID179 (DTP/NCI, 2004)
Calls of active or inactive are those of the source.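 How the source made its calls: active means compounds giving half or more protection of infected cells from virus-caused growth loss, again on retest; inactive means the rest.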 Where a SMILES comes first, the peptide text is derived from it. The star is where a group is joined. Cbz = O=C(OCc1ccccc1)*

System: CEM cells HIV-1 protection, formazan growth assay
Test: NCI AIDS Antiviral Assay
Conditions: for IC50: measured here: growth of uninfected CEM cells
Procedure, shortened: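 CEM (human) cells, HIV-1 infected vs uninfected, 5-point dosing, formazan growth read-out. Retest threshold 50% protection.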

Structure (SMILES)	EC50	IC50	outcome
O=C(/C=C\c1cccc2ccccc12)c1ccc(F)cc1	> 7.24 µM	> 7.24 µM	
CC/C(CC(=O)CCC(=O)Nc1c(C)cccc1C)=N\NC(=O)NN	> 145 µM	> 145 µM	
COc1ccc(/C=N/Nc2nnc3c4ccccc4c4ncccc4c3n2)cc1	> 501 µM	> 501 µM	
COc1ccc2cc1Oc1ccc(cc1)C[C@@H]1c3cc(c(OC)cc3CCN1C)Oc1c(OC)c(OC)cc3c1[C@H](C2)N(C)CC3			inactive
Cn1c(=O)cc(/C=C/c2ccnc3ccccc23)c2ccccc21	> 200 µM	> 200 µM	
COc1ccc(C2OC[C@H]3O[C@@H](OCc4ccccc4)[C@H](O)[C@@H](O)[C@@H]3O2)cc1 (stereo partly specified)	> 200 µM	35.5 µM	
O=[N+]([O-])C(=C(Nc1ccccc1)Nc1ccccc1)/C(Cl)=C(\Cl)Br	> 200 µM	7.41 µM	
COC(=O)[C@]12CCC(C)[C@H](C)[C@H]1C1=CCC3[C@@]4(C)CC[C@H](OC(C)=O)C(C)(C)C4CC[C@@]3(C)C1(C)C(O)C2 (stereo partly specified)			inactive
CC1(C)CC(=O)c2c(nc3c(ccc4ccccc43)c2-c2ccc(NC(=O)CCC(=O)Nc3ccc(-c4c5c(nc6c4ccc4ccccc46)CC(C)(C)CC5=O)cc3)cc2)C1	> 100 µM	> 100 µM	
Cc1ccc(S(=O)(=O)NCCSS(=O)(=O)c2ccc(C)cc2)cc1	> 25.7 µM	> 25.7 µM	
CC(C)CCCC(C)[C@H]1CCC2[C@H]3C(CC[C@@]21C)[C@@]1(C)CCC=C[C@]12C[C@@H]2[C@@H]3O (stereo partly specified)			inactive
CN(C)C(=O)N1CC[N+](C)([O-])CC1	> 200 µM	> 200 µM	
CC(C)C1OC(N)=C(C#N)C1(C#N)C#N (stereo unspecified)	> 200 µM	7.41 µM	
CC(=O)NC(C(=O)NC(C)C(=O)N1CCCC1C(=O)O)C(C)C (stereo not drawn) (Ac-Val-Ala-Pro-OH; configuration not given here)	> 200 µM	> 200 µM	
CSc1nc(C)cc(=O)n1C1OC(COC(C)=O)C(OC(C)=O)C(OC(C)=O)C1OC(C)=O (stereo unspecified)	> 200 µM	> 200 µM	
Cc1cc(O)cc2c1CC=C1C(=C2)C(=O)C(=O)C(C(C)C)=C1O			inactive
N#C/C(=C\N1CCNC1=S)C(=O)c1ccc2ccccc2c1	> 200 µM	151 µM	
Cc1cc(Cl)ccc1NC(=O)CC1SC(=Nc2ccccc2Cl)NC1=O (stereo unspecified)	> 89.1 µM	43.7 µM	
CN[C@@H](C)[C@H](NC)c1ccccc1			inactive
CN(C)C(=O)Nc1cc2c3c(c1)CCCN3CCC2	81.3 µM	174 µM	
CC(NNC(=O)c1ccncc1)c1ccc(F)cc1 (stereo unspecified)	> 200 µM	12.3 µM	
Cc1c(Cl)ccc2c1NC(=O)C2(O)CC(=O)c1ccc2ccccc2c1 (stereo unspecified)	> 19.5 µM	> 19.5 µM	
CCC(=O)C(C)C(=O)C(=O)C(=O)OC (stereo unspecified)	> 13.5 µM	> 13.5 µM	
COC12CCC(C(C(=O)c3ccccc3)=C1C(=O)c1ccccc1)C(O)C2 (stereo unspecified)	> 501 µM	> 501 µM	
CCc1ccccc1NC(=O)C1=C(C)NC(C)=C(C(=O)Nc2ccccc2CC)C1c1ccc(NC(C)=O)cc1	> 34.7 µM	> 34.7 µM	
NCCCNCCCCN(CCCN)/[N+]([O-])=N\O	> 6030 µM	145 µM	
COCCCNC1=C(C#N)C(=O)NC(c2cccc([N+](=O)[O-])c2)S1 (stereo unspecified)	> 269 µM	39.8 µM	

Structure (SMILES)	EC50	IC50	outcome
Cc1ccc(/C=N/Nc2cc(C)c3ccccc3n2)s1	> 200 µM	10.7 µM	
O=C1OC(=O)C2C1C=C(c1ccccc1)C1C3C=CC(C4C(=O)OC(=O)C34)C21 (stereo unspecified)	> 200 µM	> 200 µM	
CCOC(=O)c1[nH]n(-c2ccccc2)c(=O)c1/C=N/C(=S)Nc1c(CC)cccc1CC	> 100 µM	24.5 µM	
Cc1nc2c(=O)[nH]c(=O)n(C)c2[nH]c1=O	> 34.7 µM	> 34.7 µM	
CCc1cc(C(N)=S)ccn1	> 200 µM	> 200 µM	
O=C(Nc1ccc(Cl)cc1Cl)C(=O)C(C(=O)c1ccncc1)C1OC(=O)c2ccccc21 (stereo unspecified)	> 178 µM	> 178 µM	
N/N=C(\CCN1CCCC1)CC(c1ccccc1)c1c(O)c2ccccc2oc1=O (stereo unspecified)	> 58.9 µM	> 58.9 µM	
CCCCCN(CCCCC)CCC(=O)c1ccc2cc(Br)c3ccccc3c2c1	> 200 µM	12.6 µM	
CC1(C)CC2=C(Sc3ccccc3N2)C(=O)C1C(=O)C(=O)Nc1cc(Cl)ccc1Cl (stereo unspecified)	> 148 µM	64.6 µM	
COc1ccc2c(=O)c(O)c(-c3ccccc3)oc2c1	> 66.1 µM	12.3 µM	
COC12COC(=O)C1C(c1ccc3c(c1)OCO3)c1cc3c(cc1O2)OCO3 (stereo unspecified)	> 200 µM	9.12 µM	
O=C1c2ccccc2-c2cc(N3C(=O)C=CC3=O)ccc21	> 200 µM	17 µM	
NC1=NS(=O)(=O)Nc2nc(-c3ccc(Cl)cc3)c(-c3ccc(Cl)cc3)nc21	> 61.7 µM	> 61.7 µM	
Nc1ccc(S(=O)(=O)Nc2nc3ccccc3nc2N2CCCCC2)cc1	> 200 µM	72.4 µM	
Cc1cc2c(c(C)c1O)C(C)(C)CN2C(=O)C(C)(C)C	> 200 µM	74.1 µM	
CCN(CC)S(=O)(=O)c1ccc([O-])c(C(=O)[O-])c1.[Cu+2].[OH3+]	> 200 µM	28.2 µM	
COc1cccc(/C=N/[N-]C(N)=O)c1[O-].[Cu+2].[OH3+].c1ccc(-c2ccccn2)nc1			inactive
O=C(NC(Nc1ccc(F)c(Cl)c1)(C(F)(F)F)C(F)(F)F)OCc1ccccc1	> 200 µM	30.9 µM	
CC(C)N([P-]C(=O)[P-]N(C(C)C)C(C)C)C(C)C.[C-]#[O+].[C-]#[O+].[C-]#[O+].[C-]#[O+].[C-]#[O+].[C-]#[O+].[Fe].[Fe] (stereo unspecified)	> 3.55 µM	> 3.55 µM	
O=C1C2C3CC(C4C5C=CC(C5)C34)C2C2C3CC(C12)C1C2C=CC(C2)C31 (stereo unspecified)	> 28.8 µM	> 28.8 µM	
CCOC(=O)C(O)(CC1=NC(C(=O)OC)(C(=O)OC)C(c2cccc(C=O)c2)O1)C(=O)OCC (stereo unspecified)	> 200 µM	> 200 µM	
O=c1c(S(=O)(=O)Oc2ccccc2)coc2cc(F)ccc12	> 200 µM	135 µM	
O=C1c2cc([N+](=O)[O-])cc3cc([N+](=O)[O-])cc(c23)C(=O)N1CCNCCN1C(=O)c2cc([N+](=O)[O-])cc3cc([N+](=O)[O-])cc(c23)C1=O	> 29.5 µM	0.0912 µM	
O=C1OC(c2ccccc2)=N/C1=C\c1cc(Cl)ccc1Cl	> 6.31 µM	> 6.31 µM	
O=C(O)CN(CCOCCOCCN(CC(=O)O)CC(=O)O)CC(=O)O	> 95.5 µM	3.02 µM	
CCOC(=O)c1ccc(N=NC2Sc3nc4ccccc4n3C2=O)cc1 (stereo unspecified)			inactive
O=C(c1ccc(Cl)cc1)c1ccc(OCCCOc2ccc(C(=O)c3ccc(Cl)cc3)cc2Cl)c(Cl)c1	> 4.79 µM	> 4.79 µM	

Structure (SMILES)	EC50	IC50	outcome
O=S1(=O)CC(N2CCOCC2)C2=C(O1)c1sc(-c3ccccc3)nc1CC2 (stereo unspecified)			inactive
Nc1c2c([nH]c(=O)c1N=O)CCC2	> 200 µM	> 200 µM	
Brc1ccc(C2CC3(c4ccccc4)ON=C(c4ccccc4)N3c3ccccc3S2)cc1 (stereo unspecified)	> 200 µM	174 µM	
O=C(/C=C\c1cccc2ccccc12)c1cccs1	> 3.98 µM	> 3.98 µM	
CCCCCCCCCCCCCCCCCCOP(=O)([O-])OC1CC[N+](C)(C)CC1	> 204 µM	1.91 µM	
CCCCCCNC(=O)CNC(=O)c1ccccc1SC(=O)CCCC[n+]1ccccc1	> 200 µM	34.7 µM	
O=C1OC(c2ccccc2)N(C(=O)c2ccccc2)C1Cc1ccc(OCc2ccccc2)cc1 (stereo unspecified)	> 200 µM	85.1 µM	
NCS(=O)(=O)O	> 200 µM	18.6 µM	
Cc1ccc(C2=C(C#N)C(=O)N3CCN=C3S2)cc1	> 200 µM	> 100 µM	
Cn1c2ccccc2c2cc(-c3ccccc3)c3c(c21)C(=O)c1ccccc1C3=O	> 13.5 µM	> 13.5 µM	
NNC(=O)CNC(=O)CSc1nnc(COc2ccc(Cl)cc2)n1-c1ccccc1	> 200 µM	56.2 µM	
Cc1c(C(=O)CSc2nc3ccc([N+](=O)[O-])cc3[nH]2)c(=O)n(-c2ccccc2)n1C	> 17 µM	> 17 µM	
Oc1ccc(Cl)cc1/C=N/Nc1nnc(N/N=C/c2cc(Cl)ccc2O)c2ccccc12	> 200 µM	1 µM	
CC(C)S(=O)(=O)O	> 200 µM	> 200 µM	
COC(=O)C12CN(C)CC(C(=O)OC)(C1=O)C(c1ccccc1)OC2c1ccccc1 (stereo unspecified)			inactive
OCc1ccc2c(c1)CC1(Cc3ccccc3C1)C2	> 200 µM	20 µM	
Cc1ccc(C(=O)Nc2ccc(S(=O)(=O)O)c3cc(S(=O)(=O)O)cc(S(=O)(=O)O)c23)cc1NC(=S)Nc1cc(C(=O)Nc2ccc(S(=O)(=O)O)c3cc(S(=O)(=O)O)cc(S(=O)(=O)O)c23)ccc1C	132 µM	204 µM	
CC1=Nc2ccccc2C12C(c1ccccc1)C(c1ccccc1)C(=O)N1c3ccccc3CC12 (stereo unspecified)	> 79.4 µM	> 79.4 µM	
Cc1cc([N+](=O)[O-])c(C)c2c1[nH]c1ccc(O)cc12	> 38.9 µM	6.92 µM	
COc1cc(Oc2nc3cc(F)c(F)cc3nc2-c2ccccc2)cc(OC)c1OC	> 100 µM	35.5 µM	
CCC1(CC)C(=O)N(C(=O)c2cc(OC)c(OC)c(OC)c2)N(C(=O)c2cc(OC)c(OC)c(OC)c2)C1=O	> 200 µM	10.7 µM	
N#CC(C#N)=CC=C1c2ccccc2Sc2ccccc21	> 18.2 µM	> 18.2 µM	
NC(=S)N/N=C(/CCN1CCCC1)CC(C1=C(O)C2=CCCCC2OC1=O)c1ccccc1 (stereo unspecified)	> 135 µM	> 135 µM	
CN(C(=O)C12C3C4C1C1C2C3C41C(=O)C(C)(C)C)C(C)(C)C (stereo unspecified)	> 6.61 µM	> 6.61 µM	
CCOC(=O)CC(NC(=O)C(CC(=O)OC)NC(=O)C(CC(=O)OC)NC(=O)C(CC(=O)OC)NC(=O)C(CC(=O)OC)NC(=O)C(CC(=O)OC)NC(=O)C(CC(=O)OC)NC(=O)C(CC(=O)OC)NC(=O)OCc1ccccc1)C(=O)OCC (stereo unspecified) (Cbz-D(OMe)D(OMe)D(OMe)D(OMe)D(OMe)D(OMe)D(OMe)D(OEt)-OEt; configuration not given here)	> 100 µM	> 100 µM	
CCN(CC)CCOc1ccc(/C(=C(\Cl)c2ccccc2)c2ccccc2)cc1	> 200 µM	5.5 µM	
